Patent US20260265216A1, “NOVEL THIOREDOXIN REDUCTASE INHIBITORS” (GENEXPLAIN GMBH, priority 2021, published 2026)
pIC50: −log10 of the molar value. Structures can show the parent of a compound that is named as a salt.

Legend:
HCT116-Cas9 = assay: Growth suppression assay (resazurin); type: cell-based; conditions: 48 hours
Experimental: (§1) Cells were grown in 96-well plates at a density of 3000 cells per well with or without doxycycline and treated with compounds. After 48 hours of incubation the proliferative cell reagent resazurin (Thermo Fisher Scientific) was added to the cells. The degree of resazurin reduction, which reflects cell viability, was measured by microplate reader by monitoring the absorbance at 570 nm and 600 nm, according to the manufacturer.
(§2) Two carcinoma cell lines, MCF7 (breast carcinoma) and HCT116 (colon carcinoma) grown in 96-well plates, were treated with increasing concentrations of the synthesized compounds, ranging from […]. After 48 hours of incubation the proliferative cell reagent resazurin was added to the cells. The degree of resazurin reduction, which reflects cell viability, was measured by microplate reader by monitoring the absorbance at 570 nm and 600 nm, according to the manufacturer and the IC50 was determined (Table 1).

MCF7-Cas9 = assay: Growth suppression assay (resazurin); type: cell-based; conditions: 48 hours, hydrochloride
Experimental: as §1, §2

Solubility = type: physicochemical; conditions: solvent in which soluble

Row | Solubility (Solubility) | SMILES | further results
1 | Warm DMSO | N#Cc1c(-c2cccnc2)[n+]([O-])c2cc(N3CCOCC3)c(F)cc2[n+]1[O-] [Compound 1c, 7-Fluoro-6-(morpholin-4-yl)-3-(pyridin-3-yl)quinoxaline-2-carbonitrile-1,4-dioxide] | –
2 | Warm DMSO | N#Cc1c(-c2cccnc2)[n+]([O-])c2cc(F)c(N3CCOCC3)cc2[n+]1[O-] [Compound 1d, 6-Fluoro-7-(morpholin-4-yl)-3-(pyridin-3-yl)quinoxaline-2-carbonitrile-1,4-dioxide] | –
3 | Warm DMSO | N#Cc1c(-c2cccnc2)[n+]([O-])c2cc(F)c(N3CCCC3)cc2[n+]1[O-] [Compound 1f, 6-Fluoro-7-(pyrrolidin-1-yl)-3-(pyridin-3-yl)quinoxaline-2-carbonitrile-1,4-dioxide] | –
4 | Warm DMSO | N#Cc1c(-c2cccnc2)[n+]([O-])c2cc(F)c(N3CCCCC3)cc2[n+]1[O-] [Compound 1g, 6-Fluoro-7-(piperidin-1-yl)-3-(pyridin-3-yl)quinoxaline-2-carbonitrile-1,4-dioxide] | –

Continued, molecule first:

Row | SMILES | Solubility (Solubility) | further results
5 | N#Cc1c(-c2ccncc2)[n+]([O-])c2cc(N3CCOCC3)c(F)cc2[n+]1[O-] [1a*HCl, 7-Fluoro-6-(morpholin-4-yl)-3-(pyridin-4-yl)quinoxaline-2-carbonitrile-1,4-dioxide hydrochloride] | – | pIC50 (HCT116-Cas9; hydrochloride): 5.03; pIC50 (MCF7-Cas9): < 5.00
6 | N#Cc1c(-c2ccncc2)[n+]([O-])c2cc(F)c(N3CCOCC3)cc2[n+]1[O-] [1b*MsOH, 6-Fluoro-7-(morpholin-4-yl)-3-(pyridin-4-yl)quinoxaline-2-carbonitrile-1,4-dioxide methanesulfonate] | – | pIC50 (HCT116-Cas9; methanesulfonate): 5.47
7 | N#Cc1c(-c2ccncc2)[n+]([O-])c2cc(N3CCOCC3)c(F)cc2[n+]1[O-] [Compound 1a, 7-Fluoro-6-(morpholin-4-yl)-3-(pyridin-4-yl)quinoxaline-2-carbonitrile 1,4-dioxide] | Warm DMSO | –
8 | N#Cc1c(-c2ccncc2)[n+]([O-])c2cc(F)c(N3CCOCC3)cc2[n+]1[O-] [Compound 1b, 6-Fluoro-7-(morpholin-4-yl)-3-(pyridin-4-yl)quinoxaline-2-carbonitrile-1,4-dioxide] | Warm DMSO | –
